The values that follow come from paper PMC9688808, “Discovery of Novel Lin28 Inhibitors to Suppress Cancer Cell Stemness” (Cancers, 2022).

The target in one experiment is T1, Lin28B ZKD (Homo sapiens, UniProt Q6ZN17).
T1 construct: His-tagged human Lin28B ZKD (aa110-174); His-tag; made in house; host or cells: Escherichia coli BL21
T1 sequence (Q6ZN17 110-174): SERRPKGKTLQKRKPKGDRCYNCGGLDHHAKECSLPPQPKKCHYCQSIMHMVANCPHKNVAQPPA
Kind of experiment: Fluorescence polarization (FP) assay, Lin28B ZKD with FAM-labeled Let-7 probe. The following applies: for IC50: 10 uM Lin28B ZKD, 1 nM FAM-labeled Let-7 probe, 1 nM–1000 uM compound. In kind it is binding. The source says: ZINC compounds were purchased from Enamine (Kyiv, Ukraine), Life Chemicals Ltd. (Kyiv, Ukraine), or Princeton Biomolecular Research (Princeton, NJ, USA) with >90% purity. Upon receiving the compounds, the molecular masses were validated by LC/MS/MS. His-tagged human Lin28B ZKD (aa110-174), Lin28B CSD+ZKD (aa7-204), and Lin28A ZKD (aa121-187) were expressed in Escherichia coli BL21 cells and purified by immobilized metal ion affinity chromatography (IMAC) with nickel nitrilotriacetic acid (NiNTA) resin and size exclusion chromatography (s75 10/300 GL) as we have previously reported.
The fluorescein amidites (FAM)-tagged Let-7 probe with the sequence of […] was purchased from Integrated DNA Technologies (IDT). The probe at the concentrations ranging from 1 nM to 50 uM was incubated with Lin28B (ZKD) or Lin28 (CSD+ZKD) to a final volume of 30 uL at room temperature for 20 min. To read the fluorescence, a TECAN 500 machine was used. Fluorescence polarization was calculated using the following equation: P=Fparrallel−Fperpendicular/Fparrallel+Fperpendicular where P is the fluorescence polarization reading, F parallel is the fluorescence intensity acquired from the parallel excitation plane, and F perpendicular is the fluorescence intensity acquired from the perpendicular direction of the excitation plane. The total fluorescence intensity is estimated using the following equation: F=Fparallel+2Fperpendicular
All the raw FP signal data from the TECAN 500 FP results were analyzed using Prism 8.0 (GraphPad, San Diego, CA, USA); normalized curves were plotted and IC50 values were estimated. All FP data were repeated three to five times.
To test the predicted compounds by CADD, we established an FP assay using both Lin28B ZKD and Lin28B CSD+ZKD to be incubated with a FAM-labeled Let-7 oligo containing the GGAG motif. To validate that the signals obtained from FP assays reflect the interaction between Lin28 and Let-7, we have tested: (1) 1 nM–50 uM FAM-labeled Let-7 probes with 10 uM Lin28 proteins and observed a dose-dependent reduction of FP signal; (2) 1 nM FAM labeled Let-7 probes with 1 nM–50 uM Lin28 proteins and observed a dose-dependent increase of FP signal; (3) 1 nM–50 uM doses of non-labeled Let-7 oligo to be incubated with 1 nM FAM probe and 10 uM Lin28 proteins, and observed a dose-dependent reduction of FP signal (Figure 2A,B).
Figure 2 Establishment of the Fluorescence Polarization Assay and Initial compound screening. (A) Graphical representation of the FP assay principle. As the labeled probe floats freely in the solution, it rotates more rapidly, producing a low FP signal. When the labeled probe binds to proteins, it rotates slower and produces a high FP signal. (B) In FP assays, probe titration was performed by using 10 uM protein with […] FAM-labeled Let-7 probe (n = 9 replicates). Protein titration was performed by using 1 nM of FAM-labeled Let-7 probe with 1 nM–50 uM Lin28B ZKD protein (n = 9 replicates), and competition titration using 1 nM–50 µM non-labeled Let-7 probe with 10 uM of Lin28B ZKD protein with 1 nM FAM-labeled Let-7 probe (9 replicates). (C) FP assays were used to screen 163 compounds at the concentration of 20 uM using 1 nM of FAM-labeled Let-7 probe with 10 uM Lin28B ZKD protein.
Figure 3 Lin28 inhibitors block the interaction between Lin28B ZKD and Let-7. […]
Background: In fluorescence polarisation assays a small probe gives low polarisation when free and higher when bound to something large.

Experiment [1] deals with DUNE cells. Description: FACS analysis of CD44 and CD133 positive cell populations. The following applies: 20 uM, 48 h; for % of CD133+ cells: paired vehicle 60.8–65.4; for % CD44+ cells: paired vehicle 84.7–94.9. In kind it is cell-based. As for the experimental part: (§1) There are several standard molecular techniques, including real-time qPCR, flow cytometry, cell proliferation, colony formation, and immunoblotting assays, that have been reported previously by our lab.
(§2) Figure 7 Lin28 inhibitors block CSC phenotypes of cancer cells. (A) FACS analysis using CD44 and CD133 antibodies detected CSC cell populations from DUNE or DUNE (KO) cells treated with either vehicle or 20 uM of Ln7, Ln15, and Ln115 for 48 h. (B) DUNE, DUNE (KO), and IGROV1 cell proliferation were measured in the presence of 20 uM of Ln7, Ln15, and Ln115. (C) Colony formation assays (colonies >[…] were counted) measured the suppressive effects of Ln7, Ln15, and Ln115 at the concentration of 20 uM. p-value ≤ 0.01—(**); ≤0.001—(***).
On the technique in general: In flow cytometry, cells or beads pass a laser one at a time.

The test system of experiment [2] is DUNE cells. Description: Colony formation assay, DUNE cells. As to conditions: 20 uM (Figure 7C). The class given is cell-based. How it is done:
as §1, §2
Figure S4. A. Colony formation assays: DUNE cells were seeded in 500 cells/well. Chemicals were added one day after cell seeding (n=3 wells/chemical). Medium with chemical at the concentration of 60uM was changed every four days for 14 days. […]
0.005% crystal violet staining for 2 hours. ImageJ was used to analyze colony size and numbers (circularity was set at 0.5 -1, which is equivalent to 50uM in size). Only colonies larger than […]
50uM were countered. […]
(1 picture or pasted object on this page, not shown here)

In turn, `O=c1[nH]c(Nc2ccccc2O)cs1` [Ln15] registered a concentration for half-maximal inhibition (IC50) against Lin28B ZKD of roughly 9 µM. In the experiment on DUNE cells [1], the “CD44- and CD133-positive cell populations” value is listed as “significant reductions”; the “% of CD133+ cells” value was determined as 14.7 ± 2.1%; the “% CD44+ cells” value worked out at 70.1 ± 4.6%. Besides, in the experiment with DUNE cells [2], the “formation of cancer cell colonies” value was “strongly suppressed”. The “suppressive effect on colony formation” value with DUNE cells [2] (colonies >50 uM counted) is reported as ~ 90%.
For the molecule `CC(=O)N(C)c1cccc(-c2ccc3nnc(C)n3n2)c1` [compound 1632, reference compound], the “maximum inhibition in FP assay” value at Lin28B ZKD (Lin28B ZKD titration) is no more than 50%. Besides, in the experiment with DUNE cells [2], the “formation of cancer cell colonies” value is given as “strongly suppressed”.
As for `CCc1cc(=O)[nH]c(Nc2cc(Cl)ccc2O)n1` [Ln7], the IC50 against Lin28B ZKD is roughly 45 µM. Also, in the experiment with DUNE cells [1], the “CD44- and CD133-positive cell populations” value was “significant reductions”; the “% of CD133+ cells” value was 37.1 ± 4.2%; the “% CD44+ cells” value worked out at 61.6 ± 3.2%. For the same molecule, the “formation of cancer cell colonies” value in the experiment on DUNE cells [2] was “strongly suppressed”.
For `O=c1cccc(-c2nc3cc(F)c(O)cc3c(=O)[nH]2)[nH]1` [Ln115], the IC50 on Lin28B ZKD is roughly 21 µM. Moreover, in the experiment on DUNE cells [1], the “CD44- and CD133-positive cell populations” value was “significant reductions”; the “% of CD133+ cells” value is listed as 30 ± 4.5%; the “% CD44+ cells” value is listed as 54.3 ± 6.0%. Further, the “formation of cancer cell colonies” value in the experiment with DUNE cells [2] is listed as “strongly suppressed”.
`CCOc1cccc2c1N[C@@H](c1ccc(C(=O)O)cc1)[C@H]1CC=C[C@@H]21` [Li71, reference compound] had a half-maximal inhibitory concentration (IC50) against Lin28B ZKD of 55 µM. Further, in the experiment with DUNE cells [2], the “formation of cancer cell colonies” value is given as “strongly suppressed”.

A word on the IC50: it is the concentration needed to halve the response being measured. Read a low IC50 as greater potency.
